Assay results taken from US20220257552A1, “METHODS OF PRESCREENING AND TREATING BREAST CANCERS WITH SELECTIVE ANDROGEN RECEPTOR MODULATORS” (priority 2021, published 2022).

Columns and labels:
[1] = test system: metastatic or locally advanced ER+/AR+ breast cancer; assay: Phase 2 trial G200802, 9 mg or 18 mg daily, ER+/AR+ breast cancer; type: in vivo, human; settings: for ORR / Best overall objective tumor response, CR (patients) / Best overall objective tumor response, PR (patients): post-hoc; for Best overall objective tumor response, CR (patients) / Best overall objective tumor response, PR (patients): all evaluable patients
Method: Each dose arm was treated independently, and each assessed for efficacy using Simon's two-stage (optimal) design (Simon R. Optimal two-stage designs for Phase 2 clinical trials. Controlled Clinical Trials 1989; 10: 1-10). Subjects were randomized in a 1:1 fashion to one of the two dose arms.
Randomization was stratified by subjects presenting with bone only metastases and all other subjects, and further by setting of immediately preceding therapy (adjuvant setting or metastatic setting) in order to balance the proportion of subjects with these presenting features in each dose arm.
Thirty-six to eighty-eight (36-88) subjects with centrally confirmed AR+ who received at least one dose of study drug (evaluable subjects) were needed for primary efficacy analysis purposes and were a subset of the full analysis set (FAS). Fifty patients in the 9 mg cohort and 52 patients in the 18 mg cohort met these criteria. […] Other statistical parameters that were part of the sample size calculation are α=0.025 (one-sided) and power=90%. The first stage in each study arm was assessed among the first 18 evaluable subjects. Greater than 3/18 subjects achieved CB (defined as CR, PR, or SD) at week 24, and both arms proceeded to the second stage of recruitment up to a total of 44 evaluable subjects per arm. Otherwise, the arm would have been discontinued for lack of efficacy. Statistical significance, i.e., rejection of the null hypothesis of an unacceptably low CBR of ≤10% in favor of the alternative hypothesis that indicated the higher rate, ≥30%, was more likely, would be declared if at least 9/44 subjects achieved CB at week 24 in that arm.
These patients on the study had measurable disease at baseline and an AR staining prior to entry into the study. The radiographic imaging in this patient population was done every 12 weeks (2.7 months). Therefore, the minimum radiographic progression free survival (rPFS) that could be determined is approximately 2.7 months. 90% of the patients in the study had previously received non-endocrine based chemotherapy. The patients in this study had failed an average of 2 prior treatment lines for metastatic disease (range=0-5). FIG. 43 provides a scatterplot for the patients in this study with regard to the correlation between % AR-positive staining at baseline (% AR staining) and rPFS. […] However, in patients with greater than or equal to 40% AR-positive staining, the rPFS was delayed to variable extents (scatter plot pattern) in many to most cases. A positive correlation between rPFS and % AR staining was seen above the threshold of 40% AR staining. To explore this positive correlation further, several subgroups of AR % staining were defined and analyzed for metrics of efficacy, as shown in Table 14.

HCI-7 PDX = assay: HCI-7 (HCI-007) patient-derived xenograft in NSG mice; type: in vivo
Method: HCI-007 tumor pieces (1 mm^3) were implanted surgically (one per mouse) under the skin on the flanks of NSG mice. Simultaneously, 17β-estradiol pellet (Innovative Research of America) was implanted surgically under the skin of each mouse. Tumors were allowed to grow and reach approximately 100 mm^3 volume (1*W*W*0.526). […] Tumor volume was measured weekly and represented as % change in tumor volume (FIG. 32). Mice were sacrificed and tumors stored for further analysis.
All animal protocols were approved by The University of Tennessee Health Science Center (UTHSC) Institutional Animal Care and Use Research Committee. Xenograft experiments were performed as previously published (Narayanan et al. (2014) PLoS One 9, e103202). Briefly, 3 million MCF-7 cells were suspended in 0.05 ml MEM+10% FBS and 0.05 ml Matrigel/nude mouse and were injected subcutaneously. Once the tumor size reached 100-200 mm^3, the animals were randomized and treated orally with the indicated drugs formulated in DMSO:PEG-300 (15:85). HCI-7, HCI-9, and HCI-13 PDXs were gifts kindly donated by Dr. Alana Welm (Huntsman Cancer Institute, Salt Lake City, Utah). HCI PDX tumor fragments (1 mm^3) were surgically implanted under the mammary fat pad in female NOD SCID Gamma (NSG) mice. Tumor volume was measured twice weekly for MCF-7 xenograft and once or twice weekly for HCI PDXs. At the end of the study, animals were sacrificed and tumors were excised, weighed, and stored for various analyses.
From the several PDXs available, three AR-positive PDXs were identified, based on gene expression profile. […] The enzalutamide dose was selected based on previous published experiments (Park et al. (2016) Cancer Invest 34, 517-520; Pollock et al. (2016) Nat Chem Biol 12, 795-801) as well as from internal experiments conducted in prostate cancer xenografts and in Hershberger studies.

MCF-7-AR tumors = assay: Phospho MAPK array of MCF-7-AR tumors; design: species or system mice; settings: mouse, in vivo
Method: Protein from MCF-7-AR tumors that were treated with vehicle or compound of Formula VIII were extracted and incubated with phospho MAPK array to determine the effect of compound of Formula VIII on phosphorylation of various kinases.

C[C@](O)(COc1ccc(C#N)cc1)C(=O)Nc1ccc(C#N)c(C(F)(F)F)c1 [Formula IX, (S)—N-(4-Cyano-3-(trifluoromethyl)phenyl)-3-(4-cyanophenoxy)-2-hydroxy-2-methylpropanamide]
responders with duration of response ≥6 months ([1]; 9 mg): 67%
responders with duration of response ≥12 months ([1]; 9 mg): 25%
Quality of life assessments ([1]; 9 mg and 18 mg cohorts, p=0.002): significant improvement from baseline
tolerability ([1]; 9 mg and 18 mg doses): well tolerated
patients with complete response ([1]; 9 mg arm, 3 patients who failed palbociclib): 33%
Median duration of clinical benefit ([1]; 9 mg group): not reached
rPFS ([1]; 9 mg, AR nuclei staining <40%): 2.72 months
ORR ([1]; 9 mg, AR nuclei staining <40% (0/22)): 0%
rPFS ([1]; 9 mg, AR nuclei staining ≥40%): 5.47 months
ORR ([1]; 9 mg, AR nuclei staining ≥40% (12/25)): 48%
Best overall objective tumor response, CR (patients) ([1]; 9 mg): 3
Best overall objective tumor response, PR (patients) ([1]; 9 mg): 8
median duration of response ([1]; 9 mg, patients with objective tumor response, range 2.73 to >27.83): 8.18 months
response rate ([1]; 18 mg arm, 6 patients who failed palbociclib): 33%
Median duration of clinical benefit ([1]; 18 mg group (11 months-16.5 months)): 14.1 months
Best overall objective tumor response, CR (patients) ([1]; 18 mg): 1
Best overall objective tumor response, PR (patients) ([1]; 18 mg): 5
objective response in ≥60% AR subgroup ([1]; progressed on estrogen blocking agents and CDK 4/6 inhibitor, 4 patients): 75%
patients with an objective response ([1]; progressed on estrogen blocking agents and CDK 4/6 inhibitor, AR ≥40% (7 patients)): 3 patients
tumor growth (HCI-7 PDX; 10 mg/kg Formula IX, 30 mg/kg enzalutamide, orally): inhibited significantly
tumor weights at end of study (HCI-7 PDX; 10 mg/kg orally): significantly smaller
tumor growth (% change in tumor volume) (HCI-7 PDX; Formula IX 10 mg/kg, enzalutamide 20 mg/kg, orally, vs vehicle): grew slowly

C[C@](O)(COc1ccc(C#N)cc1)C(=O)Nc1ccc(C#N)c(Cl)c1 [Formula VIII, (S)—N-(3-chloro-4-cyanophenyl)-3-(4-cyanophenoxy)-2-hydroxy-2-methylpropanamide]
JNK phosphorylation (MCF-7-AR tumors): upregulated
